These results are taken from patent US20210251228A1, “METHODS FOR REPELLING DROSOPHILA SPECIES USING 2-PENTYLFURAN” (The United States of America, as represented by the …, priority 2020, published 2021).

The subject of one assay is Drosophila melanogaster. The experiment in a line: Two-choice bioassay: attraction to apple cider vinegar traps. The format is in vivo. The note with it: 20 h. The method, then: Two-Choice Bioassay with Drosophila melanogaster: The two-choice assay (N=5) was conducted with an arena design using a dome cage (30 cm W×30 cm L×30 cm H; shop.bugdorm.com) as described in Cha et al. (2012) to evaluate the effect of 2-pentylfuran on D. melanogaster, vinegar fly, attraction to apple cider vinegar, a known attractant. The same gate cup trap design was used as described above in Multiple-Choice Bioassay section. Both traps had 20 ml of apple cider vinegar with soap. […] A cotton ball (3 cm diameter) soaked with distilled water was placed in the center of the arena to provide water to D. melanogaster. . Adult flies (˜50, roughly 1:1 male: female ratio, 7-10 days old) were released in each arena. The number of flies inside treatment and control traps was counted after 20 h.
(§1) Statistical Analyses: Trap catch data from multiple-choice assay and two-choice assay were analyzed in a randomized block design with block as a random factor and different EAD-active compounds as a fixed factor using Poisson distribution with log link function and maximum likelihood estimation (Proc Glimmix, SAS Institute, SAS/STAT 9.2 User's Guide, Second Edition, 2009, SAS Institute Inc., Cary, N.C.). […]

Another assay relates to Drosophila suzukii. The assay can be described thus: No-choice oviposition cage experiment: release rate of 2-pentylfuran on raspberry. The note with it: 2 h. The format is in vivo. The method, then:
Effects of Release Rate of 2-pentylfuran on SWD Oviposition on Raspberry: No Choice Test. Based on the significant effect of 2-pentylfuran using an unknown release rate in the field, to better understand concentration response of SWD to 2-pentylfuran, we evaluated the response of adult SWD to different ranges of 2-pentylfuran release rates in 2 h no choice oviposition cage experiments conducted in the greenhouse (25° C.; natural light; 40-60% r.h.). Cages (60 cm W×60 cm H×180 cm L, BioQuip, Rancho Dominguez, Calif.) were shrouded with a piece of shade cloth (120 cm W×120 cm H×300 cm L). […] Actual release rates from each dispenser used were measured for each assay by recording weight of the dispensers prior and post assay. […] Upon completion of the assay, total number of SWD eggs oviposited into the raspberries was determined with the aid of a dissecting microscope.
as §1

Regarding `CCCCCc1ccco1` [2-pentylfuran], the “effect on D. melanogaster attraction to apple cider vinegar” value in the assay with Drosophila melanogaster (2-pentylfuran 10 mg/h sachet in gated trap, N=5) is recorded as “significantly reduced”. Moreover, in the assay on Drosophila melanogaster (among five replications, 10 mg/h, 50~67 in ACV-only traps), the “number of D. melanogaster captured in traps baited with apple cider vinegar and 2-pentylfuran” value is given as “one”. Also, the “release rate at which SWD oviposition began to decline relative to control” value in the assay with Drosophila suzukii (greenhouse cages, raspberries, N=12) is listed as “around 2.5 mg/h”. Further, the “reduction in number of eggs laid compared to control” value with Drosophila suzukii (high release rate (5 and 10 mg/h)) is recorded as 58%.
